We go through 1 compound from patent US12048684B2, “Arctigenin liquid nano-preparation and preparation method thereof” (Wuhan Academy of Agricultural Sciences, priority 2022, dated 2024).

This data set can be described thus: Solubility in pure water at room temperature. Format: physicochemical.

Consider `COc1cc(C[C@H]2C(=O)OC[C@@H]2Cc2ccc(OC)c(OC)c2)ccc1O` [arctigenin raw material, arctigenin], for which the “solubility (water solubility of arctigenin)” value is given as < 0.05%.
